According to patent US8030323B2, “Pyrazole carboxamide derivatives, pharmaceutical compositions and its preparation” (Beijing Molecule Science and Technology Co., Ltd., priority 2006, dated 2011):

Target: T1, CBI receptor (Rattus norvegicus, UniProt P20272)
T1 construct: Preparation of CBI receptor membrane protein in cerebellum of rat; from tissue; host or cells: Wistar rat cerebellum membranes
Assay: Drug and CBI receptor competition binding experiment (rat cerebellum membrane protein)
Conditions: CBI receptor membrane protein from Wistar rat cerebellum; 30° C. for 1 hour; 1×10^−7 to 1×10^−11 mole concentration; read-out: antagonistic concentration of 50% (EC50) to CBI receptor
Method: 2.1 Preparation of CBI receptor membrane protein in cerebellum of rat: Wistar rat, 220-260 g, female and male being not limited, was killed by cutting head, its cerebellum was separated rapidly, weighted and added to a buffer of Tris-HCl in 10 times of volume (50 mM, Tris HCl, 5 mM MgCl2.6H2O, 1 mM EDTA, 0.5% (W/V) BSA, pH 7.4), homogenized by using homogenizer at 15000 rpm/min, 30 seconds once, 5 times in total. The homogenized liquid was centrifuged at 400×g for 10 minutes, the supernatant was centrifuged at 39000×g for 10 minutes, the precipitate was collected, re-suspended with Tris-HCl buffer of pH 7.4 in 10 times of volume of the original weight, and centrifuged at 39000×g for 10 minutes, the precipitate was washed with the same buffer, and centrifuged at 39000×g for 10 minutes, the resultant precipitate was washed with Tris-HCl. […]
100 μg of receptor protein, 20 μl of the compound in Example 1 in mole concentration of 1×10^−7, 1×10^−8, 1×10^−9, 1×10^−10 and 1×10^−11, respectively were added successively, reacted at 30° C. for 1 hour, the sample was spotted on glass fiber filtration membrane, filtrated under negative pressure, washed with cold buffer for 10 times, 2 ml per time, the filtration membrane was unwatered, dried over oven, and placed in scintillation bottle, added 1 ml scintillating liquid, the radioactivity strength was detected by LS6500 scintillation counter.

T1 sequence (P20272 whole entry): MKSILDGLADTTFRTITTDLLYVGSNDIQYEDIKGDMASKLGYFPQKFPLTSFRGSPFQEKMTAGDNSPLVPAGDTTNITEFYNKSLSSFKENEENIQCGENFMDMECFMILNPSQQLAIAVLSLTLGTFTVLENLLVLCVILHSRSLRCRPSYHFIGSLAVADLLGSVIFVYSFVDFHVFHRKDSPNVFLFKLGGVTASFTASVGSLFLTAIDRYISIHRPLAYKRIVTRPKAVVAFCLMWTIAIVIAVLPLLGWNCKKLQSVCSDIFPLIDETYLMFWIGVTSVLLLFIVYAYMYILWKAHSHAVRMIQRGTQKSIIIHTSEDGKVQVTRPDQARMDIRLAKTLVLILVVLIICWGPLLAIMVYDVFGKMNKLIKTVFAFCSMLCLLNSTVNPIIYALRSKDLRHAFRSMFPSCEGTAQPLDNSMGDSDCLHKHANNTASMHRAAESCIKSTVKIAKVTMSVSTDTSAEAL

Cc1c(C(=O)NCc2cccnc2)nn(-c2ccc(Cl)cc2Cl)c1-c1ccc(Cl)cc1 [Example 1, N-(3-aminomethyl-pyridyl)-5-(4-chlorophenyl)-1-(2,4-dichlorophenyl)-4-methyl pyrazol-3-carboxamide]
EC50: 0.13 nM
